Test results from patent US11118208B2, “Methods for modulating protein galactosylation profiles of recombinant proteins using peracetyl galactose” (ARES TRADING S.A., priority 2016, dated 2021).

Assays:
[1] = tested on: CDC activity; details: degalactosylated antibody; cited from earlier work
[2] = tested on: mAb1 cells (CHO-S cells expressing IgG1 mAb1); experiment: Fed-batch culture of mAb1 cells in deepwell plates (DWP): viable cell density, viability, titer; format: cell-based, Chinese hamster
Method: (§1) First assays were performed with an antibody produced in a CHO cell line: CHO-S cells expressing IgG1 mAb1, herein “Cells mAb1” or “mAb1 cells”. “mAb1” is a fully human monoclonal antibody directed against a soluble protein. Its isoelectric point (pI) is about 8.20-8.30.
(§2) Cells expressing mAb1 were inoculated at 0.3×10^6 cells per millilitre (mL), whereas Cells expressing mAb2 were inoculated at 0.2×10^6 cells per millilitre (mL).
(§3) For examples 1-3: A serum-free chemically defined culture medium was used. It was used as it is, or it was supplemented with α- or β-2-F-peracetyl galactose (herein α- or β-2F-pGal; Biosynth & AX Molecules) at different concentrations (0-200 μM before seeding). The concentrations indicated on FIGS. 1, 2, 3 and 4 are the concentrations in α- or β-2F-pGal in the culture medium at day 0, just before the inoculation. The culture medium was fed, on a regular basis, with a chemically defined feed medium, as well as with glucose in order to keep said glucose level in the range of >0 to about 8 g/L (feeds are done at days 3, 5, 7, 10 and 12).
(§4) The cultures were performed in deepwell plates (DWP) with a working volume of 450 μL. They were incubated at 36.5° C., 5% de CO2, 90% humidity and shaken at 320 rpm. Each of the fed-batch culture lasted 14 days. It is well known that experiments in DWP are artificial, although they allow a first screening of culture conditions. In order to confirm that the results obtained in DWP were reproducible at higher scale, similar experiments were also run in TubeSpin® (also called herein shake tubes or ST), with a working volume of 30 mL cell culture (same culture condition than for deepwell plates).
For DWP experiments, viable cell density and viability were measured with the Guava easyCyte® flow cytometer. Antibody titers were measured with the fortéBIO Octet®.
(§5) The cells were cultivated and the results analysed as disclosed in the material and method section. It is noted that the controls (or control conditions) according to the present invention correspond to cells grown without peracetyl galactose.

[3] = tested on: galactosylation of mAb1 antibody (mAb1 cells); experiment: Glycosylation profile of mAb1 produced in DWP (CGE-LIF); format: cell-based, Chinese hamster
Method: as §1, §3, §4
(§6) Glycosylation profiles were established by capillary gel electrophoresis with laser-induced fluorescence (CGE-LIF; for DWP and for Shake tubes experiments) or by Ultra Performance Liquid Chromatography-2-amino-benzamide labelling technique (2AB-UPLC; for Shake tubes experiments). Groups of glycans were defined as thereafter in Table 3.
as §5

[4] = tested on: mAb1 cells (CHO-S cells expressing IgG1 mAb1); experiment: Fed-batch culture of mAb1 cells in TubeSpin (shake tubes): viable cell density, viability, titer; format: cell-based, Chinese hamster; details: shake tubes
Method: as §1, §2, §3, §4
(§7) For TubeSpin® experiments, viable cell density and viability were measured with the ViCell®. Antibody titers were measured using Biacore®.

[5] = tested on: galactosylation of mAb1 antibody (mAb1 cells); experiment: Glycosylation profile of mAb1 produced in TubeSpin (CGE-LIF); format: cell-based, Chinese hamster
Method: as §1, §3, §4, §6

[6] = tested on: mAb1 cells (cell line 1); experiment: Fed-batch culture of mAb1 cells, supplementation as feed after the start of the culture: cell density, viability, titer; format: cell-based, Chinese hamster
Method: (§8) For example 4: Additional experiments were run in similar conditions, except with regard to supplementation with α- or β-2-F-peracetyl galactose. In such a case, a serum-free chemically defined culture medium was used, supplemented with α- or β-2-F-peracetyl galactose as mentioned thereafter in Table 2.
as §4, §7
Rather than supplementing the medium prior to inoculation, it was decided to start the galactose analog addition on day 3, 5 or 7 (respectively β-2F-pGal-d3, β-2F-pGal-d5 and β-2F-pGal-d7; see Table 2). Cell line 1 was used for these experiments. […] The peak cell densities were reached on day 7. No significant difference between the control and the β-2F-pGal-d3 supplemented cultures was observed. They both levelled off at 20.8 and 21.2×10^6 viable cells/mL, respectively. […] Overall, it can be assumed that the presence of β-2F-p-galactose induced limited changes on cell growth until day 7. In the second half of the culture, both the cell density and the viability (FIG. 11B) are correlated with the feed timing. Supplementation on day 3 most strongly impacted the course of the culture. At harvest, the cell density amounted to 9.8×10^6 viable cells/mL (control: 11.8×10^6 viable cells/mL). […] Feed addition on day 5 and 7, respectively, entailed viabilities on day 14 of 78 and 90% (control: 93%). According to FIG. 11C, no clear titer trend came forward. Early supplementation induced a slight titer increase on days 7 and 10, but then reduced productivity at later stages of the culture.

[7] = tested on: galactosylation of mAb1 antibody (cell line 1); experiment: Glycosylation profile of mAb1, supplementation as feed after the start of the culture (CGE-LIF); format: cell-based, Chinese hamster
Excerpt: as §8, §6

## Rituxan: recombinant IgG whose degalactosylation was studied for CDC (Hodoniczky et al., 2005)
[1]
  change of CDC after degalactosylation relative to unmodified control Mab: reduced CDC by approximately half

## CC(=O)OC[C@H]1O[C@@H](OC(C)=O)[C@H](F)[C@@H](OC(C)=O)[C@H]1OC(C)=O [β-2F-pGal, α/β-D-galactopyranose, 2-deoxy-2-fluoro-,1,3,4,6-tetraacetate]
[2]; concentration higher than 60 μM
  decrease of titers comparing to control: about 1.2 factor
[2]; concentrations between 30 and 60
  impact on protein titre: no impact on protein titre
[2]; concentrations of about 60 μM and higher
  impact on cell growth: negative impact on cell growth
[2]; concentrations up to 30 μM in medium
  impact on cell growth until the end of culture: no impact on cell growth
[2]; media concentration up to 60 μM, day 10 and day 14
  protein titer compared to the control: stays above the protein titer of the control
[2]; media concentrations below 30 μM
  impact on cell density, cell viability and protein titer: do not impact
[3]; 30 μM
  G1F absolute change compared to the control: 1.1%
  G2F absolute change compared to the control: 0.20%
  absolute change in galactosylated N-oligosaccharide compared to the control: 2.2%
  relative decrease of galactosylated N-oligosaccharides compared to control: 22%
[3]; 30 μM in medium
  galactosylated N-oligosaccharides of the protein: 8.3%
[3]; 60 μM
  G1F absolute change compared to the control: 2.5%
  G2F absolute change compared to the control: 0.30%
  absolute change in galactosylated N-oligosaccharide compared to the control: 4.2%
  relative decrease of galactosylated N-oligosaccharides compared to control: 40%
[3]; 60 μM in medium
  galactosylated N-oligosaccharides of the protein: 6.4%
[3]; 120 μM
  G1F absolute change compared to the control: 3.1%
  G2F absolute change compared to the control: 0.33%
  absolute change in galactosylated N-oligosaccharide compared to the control: 5.4%
  relative decrease of galactosylated N-oligosaccharides compared to control: 52%
[3]; 120 μM in medium
  galactosylated N-oligosaccharides of the protein: 5.1%
[3]; 200 μM
  G1F absolute change compared to the control: 4.4%
  G2F absolute change compared to the control: 0.40%
  absolute change in galactosylated N-oligosaccharide compared to the control: 6.7%
  relative decrease of galactosylated N-oligosaccharides compared to control: 64%
[3]; 200 μM in medium
  galactosylated N-oligosaccharides of the protein: 3.9%
[3]; below 30
  inhibition effect on galactosylation: neither α- or β-2F-pGal does have a significant inhibition effect on galactosylation
[3]; concentrations higher than 30 μM
  inhibition effect on galactosylation: a significant inhibition effect is observed
[4]; 60 μM
  peak viable cell density at day 7: 12.8 ×10^6 viable cells/mL
[4]; 60 μM, listed as β-2F-p-galactose
  product titer at the end of the culture (day 14): 2225 mg/L
[4]; between 0 and 90 μM α-2F-p-galactose, 60 μM β-2F-p-galactose
  effect on cell culture performance: No detrimental effect
[4]; α 30-90 μM, β 60 μM, listed as β-2F-p-galactose
  protein titer compared to the control at culture days 5, 7, 10, 12 and 14: comparable to the control
[5]; 60 μM β anomer, shake tubes, CGE-LIF, unit not given
  total level of galactosylation decreased by (Example 2.2): −5.0
[5]; 60 μM, TubeSpin
  absolute change of galactosylated N-oligosaccharides compared to the control: around 4%
[5]; 60 μM, shake tubes, CGE-LIF, listed as β-2F-peracetyl-galactose
  monogalactosylated form changed by (Example 2.2): −4.7%
[6]; feed from day 3 (β-2F-pGal-d3)
  cell density at harvest: 9.8 ×106 viable cells/mL
  protein titer (yield of the culture): 2560 mg/L
[6]; feed from day 3 (β-2F-pGal-d3), second half of culture
  viability: below 60%
[6]; feed from day 3 (β-2F-pGal-d3: days 3, 5, 7, 10)
  peak cell density (day 7): 21.2 ×106 viable cells/mL
[6]; feed from day 5 (β-2F-pGal-d5)
  protein titer (yield of the culture): 3215 mg/L
  viability on day 14: 78%
[6]; feed from day 5 (β-2F-pGal-d5: days 5, 7, 10)
  maximum cell density: 18.6 ×106 viable cells/mL
[6]; feed from day 7 (β-2F-pGal-d7)
  protein titer (yield of the culture): 2100 mg/L
[6]; feed from day 7 (β-2F-pGal-d7: days 7, 10)
  viability on day 14: 90%
[7]; feed after the start of the culture
  effects on the other glycan species: remained small
[7]; feed from day 3
  di-galactosylated entity decrease: −0.41
  mono-galactosylated species drop: −8.0%
[7]; feed from day 3 (β-2F-pGal-d3)
  overall galactosylation decrease (absolute change vs control): −8.5%
[7]; feed from day 5
  di-galactosylated entity decrease: −0.33
  mono-galactosylated species drop: −6.7%
[7]; feed from day 5 (β-2F-pGal-d5)
  overall galactosylation decrease (absolute change vs control): −7.0%
[7]; feed from day 7
  di-galactosylated entity decrease: −0.19
  mono-galactosylated species drop: −4.4%
[7]; feed from day 7 (β-2F-pGal-d7)
  overall galactosylation decrease (absolute change vs control): −4.6%
